The values below come from PMC3734263, “Fatty Acid Amide Hydrolase-Dependent Generation of Antinociceptive Drug Metabolites Acting on TRPV1 in the Brain” (PLoS ONE, 2013).

Where “and” joins values, the source holds several entries; their conditions need not be identical. Identical values can stand only once.

Series [1] can be described thus: Contents of amines and lipid metabolites in blood and brain after i.p. injection in mice (LC-MS/MS). It is filed as in vivo, mouse. As for the experimental part:
Twenty min after drug administration, the animals were anesthetized by CO2 (rats) or isoflurane (mice) inhalation and decapitated. The brain was removed from the skull and blood was collected in test tubes, containing 60 µl buffered citrate, and the tissues snap frozen in liquid nitrogen before storage at −70°C.
(§1) The whole brain was homogenized in ice-cold 10 mM Tris buffer (ml/g tissue) at pH 7.6. The buffer solution contained 1 mM EDTA, 0.3 mM ascorbic acid and 10 µM methylarachidonylfluorophosphonate (MAFP) to prevent degradation of AM404, arvanil, olvanil, anandamide and 2-arachidonoylglycerol. Aliquots (200 µl) of blood and homogenates were precipitated with 1 ml ice-cold acetone, containing AM404-D4 (5 nM) or anandamide-D8 (100 nM) as internal standard. After centrifugation at 25,200 g for 30 min at 4°C, the supernatants were collected in polypropylene tubes and vacuum evaporated. The protein content of the pellet was determined with Coomassie protein assay (Pierce; Illinois, USA), using bovine serum albumin as standard. […] Samples were analyzed on a Waters Aquity UPLC system coupled to a Sciex 5500 tandem mass spectrometer (LC-MS/MS; AB Sciex; Massachusetts, USA) or a Perkin Elmer 200 HPLC system coupled to an API 3000 tandem mass spectrometer (LC-MS-MS; Applied Biosystems/MDS-SCIEX).
(§2) Quantification of AM404, HPODA, arvanil and olvanil. Samples were analyzed on a Waters Aquity UPLC system coupled to a Sciex 5500 tandem mass spectrometer. Sample aliquots of 5 µl were injected into an Acquity UPLC BEH C18 column (100 × 2 mm, 1.7 µm; Waters) held at 50°C. All mobile phases were water-acetonitrile gradients, containing 0.1% formic acid and using a flow rate of 400 µl/min. The acetonitrile content was initially 30%, then increased linearly to 100% over 7 min and kept at this level for 4 min, followed by an equilibration period at 30% for 2 min. The electrospray interface was operating in the positive ion mode at 550°C and the ion spray voltage was set to 5000 volts. The mass transitions (m/z) used were the following: 396.2/110.1 for AM404, 374.2/110.0 for HPODA, 400.2/114.0 for AM404-D4, 440.3/137.1 for arvanil and 418.3/137.1 for olvanil. The declustering potentials were between 96 and 130 volts and the collision energies between 25 and 41 volts.
Quantification of 4-aminophenol and HMBA. Sample aliquots of 5 µl were injected into a Hypercarb column (50 × 2.1 mm; Thermo). All mobile phases were water-acetonitrile gradients, containing 0.1% formic acid. The acetonitrile content was initially 2%, then increased linearly to […] over 5 min and then kept at 100% for 1 min, followed by an equilibration period at 2% for 1.5 min. The electrospray ion source was set at 550°C and used in the positive ion mode with an ion spray voltage of 5000. […] HMBA loses the amino group already in the source of the MS and therefore the mass transition used was 137.0/94.0. The declustering potentials were 100 and 90 volts and the collision energies 21 and 29 volts. No internal standard was used for these analyses.
The contents of the compounds were expressed either in moles or as normalized peak areas (nPA) and related to the protein content in the samples. The nPA was obtained by dividing the peak area of the analyte with the peak area for the internal standard in the same sample. The detection limits were calculated as the concentrations corresponding to three times the standard deviation of the blanks. When levels were below detection limit, numerical values of half the detection limit were used in the calculations.

Series [2] has as its system mice. The series is described as follows: Spontaneous locomotor activity in actimetry boxes. Type of series: in vivo, mouse. As to conditions: 10 min before test. As for the experimental part:
Mice were placed in actimetry boxes (Actisystem; Apelex, France) and spontaneous motor activity was assessed by determining the number of crossings of light beams during 15 min.

Series [3] has as its system mice. The experiment in a line: Formalin test, mouse. Type of series: in vivo. The note with it: for formalin test phases: HMBA 100 mg/kg. As for the experimental part: (§3) The animals received an intraplantar injection of a 2.5% formalin solution (50 µl rat, 25 µl mouse) into a hind paw. The time spent biting and licking of the injected paw was monitored during the two typical phases of the nociceptive response (phase I: 0–5 min; phase II: 20–40 min in rats or 15–40 min in mice).

Series [4] concerns mice. The series is described as follows: von Frey filament test, mouse. It is filed as in vivo. As to conditions: 30 mg/kg i.p. The text has this:
Calibrated von Frey filaments (0.0045–5.4950 g) were used to induce light noxious mechanical stimulation in mice. Tests were commenced after one hour of habituation. Filaments of increasing stiffness were applied five times perpendicular to the plantar surface of the hindpaw and pressed until bending. The first filament that evoked at least three consecutive responses was assigned as the threshold (cut-off 2 g).

Series [5] concerns mice. The series is described as follows: Tail immersion test, mouse. Type of series: in vivo. The note with it: 30 mg/kg i.p. How it is done: Tails of mice were submerged in a hot water bath (46°C) and the withdrawal latency recorded (cut-off 15 s). The mean of four baseline values were determined before drug administration.
Series [6] has as its system rats. The experiment in a line: Formalin test, rat. It is filed as in vivo. The note with it: 4-aminophenol 10, 30 and 100 mg/kg i.p. As for the experimental part: as §3
A short description of series [7]: Global brain levels of endocannabinoids in the rat after 4-aminophenol. It is filed as in vivo. The note with it: 4-aminophenol 100 mg/kg i.p.; 15, 30, 45 and 60 min. How it is done:
as §1
Quantification of anandamide and 2-arachidonoylglycerol. Anandamide (m/z 348.2/62.0), anandamide-D8 (m/z 356.4/63.0) and 2-arachidonoylglycerol (m/z 379.2/287.0) were determined as previously described. Since 2-arachidonoylglycerol is non-enzymatically converted to 1-arachidonoylglycerol, the content of 2-arachidonoylglycerol was estimated as the sum of these lipids. […]

Series [8] deals with rats. The note with it: 4-aminophenol three doses, data not shown.
The next series relates to rodents. As to conditions: doses not far from those eliciting antinociception in rodents; cited from earlier work.
In series [9] the test system is rats. The experiment in a line: Paw pressure test, rat.
Method: The behavioural tests were performed in a quiet room and evaluated by a single investigator in a blinded manner. Treatments and/or genotypes were randomized in blocks and the number of animals in each block corresponded to the number of treatments and/or genotypes compared. […] Each animal was exposed to only one treatment.
The rats were submitted to the paw pressure test, using an Ugo Basile analgesy meter with a probe tip diameter of 1 mm (Bioseb, France). Nociceptive thresholds, expressed in grams (g), were measured by applying an increasing pressure to the right hind paw until a squeak (vocalization thresholds) was obtained (cut-off 750 g). Two consecutive stable vocalisation threshold values were first obtained (baseline).
Intrathecal injections were performed on anaesthetised rats held in one hand by the pelvic girdle. A 25 gauge 1 inch needle connected to a 25 µl Hamilton syringe was then inserted into the subarachnoidal space between lumbar vertebrae L5 and L6 until a tail flick was elicited. The syringe was held in position for few seconds after the injection of a volume of 10 µl [49]. All injections were performed under isoflurane anaesthesia (4% induction, 2% maintenance).
Series [10] in a line: Formation of arvanil and olvanil in brain homogenates incubated with HMBA. Type of series: in vitro ADME, rat. The note with it: HMBA 100 µM, 60 min. How it is done: Rat brain homogenate were prepared, as previously described. Brains were homogenized in Tris buffer (10 mM, pH 7.6), containing ethylenediaminetetraacetic acid (EDTA; 1 mM), at volumes of 5–10 ml/g tissue. Experiments were carried out on aliquots of 200 µl homogenate at 37°C as further explained in the text. The reactions were stopped by adding 1 ml ice-cold acetone, containing 1 µM [^2H8]-anandamide. The samples were kept on ice until the acetone phase was vacuum evaporated.
as §2, with “The declustering potentials were between 96 and 130 volts and the collision energies between 25 and 41 volts.” left out

The next series deals with T1, TRPV1 (Rattus norvegicus, UniProt O35433).
T1 construct: rat mesenteric arterial segments precontracted with phenylephrine; from tissue; host or cells: rat isolated mesenteric arterial segments (Sprague-Dawley rats)
The series is described as follows: TRPV1 activation assessed as nerve-mediated vasorelaxation in rat isolated mesenteric arteries. Type of series: cell-based. How it is done: TRPV1 activation was assessed indirectly on rat isolated mesenteric arteries, using nerve-mediated vasorelaxation as readout. Briefly, arterial segments (2 mm long) were suspended between two stainless steel wires in temperature-controlled tissue baths (37°C), containing aerated (95% O2 and 5% CO2) physiological salt solution (composition in mM: NaCl 119, KCl 4.6, CaCl2 1.5, MgCl2 1.2, NaHCO3 15, NaH2PO4 1.2 and D-glucose 6; pH 7.4), under a passive load of 2 mN. One of the wires was connected to a force-displacement transducer model FT03 C (Grass Instruments; Rhode Island, USA) for isometric tension recording. Vasorelaxation was studied in arterial segments submaximally contracted with phenylephrine. Increasing concentrations of AM404, arvanil, olvanil and HPODA in the absence and presence of capsazepine (3 µM) were then added cumulatively to determine concentration-response relationships. All experiments were performed in the presence of indomethacin (10 µM) and N^ω-nitro-L-arginine (300 µM) to reduce cyclooxygenase and nitric oxide synthase activity, respectively.
Data are presented as the mean ± SEM, and n indicates the number of animal tested in each group. pEC50 of the lipid metabolites indicates the negative log concentration that elicited half-maximal vasorelaxation. Mann-Whitney U test or Student’s t-test was used when two groups were compared. When multiple groups were compared, Kruskal-Wallis one-way ANOVA followed by Dunn’s multiple comparisons test was used. Data from the paw pressure test were analyzed by repeated measures two-way ANOVA followed by Sidak’s or Dunnett’s multiple comparisons test. The level of statistical significance was set at p<0.05. GraphPad Prism 6.0 software (California, USA) was used in all calculations and statistical analyses.

The next series deals with rat orthologue of TRPV1. More on the design: method as in PMID 11159715. The note with it: 45Ca2+ uptake assay, CHO cells expressing rat TRPV1; cited from earlier work.
The test system of another series is human TRPV1. More on the design: method as in PMID 11033355. As to conditions: HEK293 cells expressing human TRPV1, fluorometric calcium imaging; cited from earlier work.
[11] abbreviates: 4-aminophenol 30 mg/kg i.p., mouse.
The mark [12] stands for this setting: 4-aminophenol 100 mg/kg i.p., mouse.
Setting [13] is: 20 min after 4-AP 30 mg/kg i.p., mouse.
The mark [14] stands for this setting: 20 min after 4-AP 100 mg/kg i.p., mouse.

T1 sequence (O35433 whole entry): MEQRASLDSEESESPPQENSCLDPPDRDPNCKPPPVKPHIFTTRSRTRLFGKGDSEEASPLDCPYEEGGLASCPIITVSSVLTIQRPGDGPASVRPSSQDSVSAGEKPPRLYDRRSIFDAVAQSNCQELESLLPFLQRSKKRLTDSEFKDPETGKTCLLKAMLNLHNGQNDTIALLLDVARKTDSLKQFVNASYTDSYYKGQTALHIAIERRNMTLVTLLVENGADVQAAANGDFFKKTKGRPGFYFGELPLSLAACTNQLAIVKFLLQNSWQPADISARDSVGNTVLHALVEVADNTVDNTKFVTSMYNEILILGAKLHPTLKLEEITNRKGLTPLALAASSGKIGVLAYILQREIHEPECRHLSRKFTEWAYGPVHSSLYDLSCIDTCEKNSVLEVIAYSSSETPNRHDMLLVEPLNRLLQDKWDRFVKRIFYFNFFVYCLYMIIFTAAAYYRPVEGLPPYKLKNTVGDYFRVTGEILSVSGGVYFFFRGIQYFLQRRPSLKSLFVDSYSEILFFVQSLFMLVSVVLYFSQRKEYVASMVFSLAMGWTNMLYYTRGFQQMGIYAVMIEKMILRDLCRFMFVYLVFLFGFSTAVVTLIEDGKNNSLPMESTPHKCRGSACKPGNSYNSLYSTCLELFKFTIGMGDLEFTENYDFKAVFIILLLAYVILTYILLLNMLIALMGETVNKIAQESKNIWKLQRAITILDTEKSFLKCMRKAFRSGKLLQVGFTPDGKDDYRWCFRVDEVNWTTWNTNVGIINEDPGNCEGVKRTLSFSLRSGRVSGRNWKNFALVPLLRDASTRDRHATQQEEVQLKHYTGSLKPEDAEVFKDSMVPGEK

For `Nc1ccc(O)cc1` [4-aminophenol], the “quotient between brain levels of 4-aminophenol and AM404” value in series [1] (setting [11]) was 223; in series [1] (setting [12]) it was 1,547. For the same compound, the “quotient between brain levels of 4-aminophenol and HPODA” value is given as 951 in [1] (setting [11]) and 9,376 in series [1] (setting [12]). Also, the “Blood 4-AP” value in [1] (setting [13]) was 283 ± 15 nmol/g; in [1] (setting [14]), 878 ± 157 nmol/g. The “Brain 4-AP” value in [1] (setting [13]) amounted to 91 nmol/g; in series [1] (20 min after 4-AP 30 mg/kg i.p., mouse, listed as 4-AP), 91 ± 12 nmol/g; in [1] (setting [14]), 7470 ± 1720 nmol/g. Moreover, the locomotor activity entry in the series with mice [2] (4-aminophenol 10, 30 and 100 mg/kg i.p.) was “reduced locomotor activity after the highest dose”; in the series with rats [8], “tolerated all three doses”. In addition, in the series with mice [3] (30 mg/kg i.p., FAAH+/+ mice), the “licking time in formalin test” value is “reduced the licking time during the first and second phases”. The “antinociception in formalin test” value in the series on mice [3] (30 mg/kg i.p., FAAH−/− mice) is “failed to produce antinociception”. The “antinociceptive activity in formalin test” value in the series on mice [3] (30 mg/kg i.p., TRPV1−/− mice) is “lost”. Also, in the series on mice [4] (FAAH+/+ mice), the “withdrawal threshold in von Frey test” value is “increased the withdrawal threshold”. Moreover, in the series on mice [4] (FAAH−/− mice), the “antinociception in von Frey test” value is on record as “failed to produce antinociception”. Moreover, the “antinociceptive activity in von Frey test” value in the series with mice [4] (TRPV1−/− mice) is listed as “lost”. Besides, the “latency time in tail immersion test” value in the series on mice [5] (FAAH+/+ mice) is “increased”. Also, in the series with mice [5] (FAAH−/− mice), the “antinociception in tail immersion test” value is given as “failed to produce antinociception”. The “antinociceptive activity in tail immersion test” value in the series with mice [5] (TRPV1−/− mice) was “lost”. The “licking time in rat formalin test” value in the series with rats [6] was “Only the highest dose reduced both phases”. For the same compound, in series [7], the “global levels of the endocannabinoids anandamide and 2-arachidonoylglycerol in the rat brain” value is on record as “did not affect the global levels”. Also, the “nephrotoxic effect after a single exposure” value in the series with rodents is listed as “renal tubular necrosis”. Moreover, the “withdrawal threshold in rat paw pressure test” value in the series on rats [9] (100 mg/kg i.p., 15 and 30 min after administration) is “increased the withdrawal threshold”; in the series with rats [9] (intermediate dose 30 mg/kg i.p.), “effective only at 15 min”; in the series with rats [9] (low dose 10 mg/kg i.p.) it was “inactive”.
As to `COc1cc(CN)ccc1O` [HMBA, 4-hydroxy-3-methoxybenzylamine], the “formation of N-acylamines in brain homogenates” value in [10] is “leads to the formation of arvanil and olvanil”. Moreover, the locomotor activity entry in the series with mice [2] (HMBA 100, 200 and 300 mg/kg i.p.) is reported as “only the dose of 100 mg/kg failed to affect locomotion”. Moreover, the formalin test phases entry in the series with mice [3] (FAAH−/− mice) was “affected none of these phases”; in the series on mice [3] (wild-type mice), “inhibited both the first and second phases”.
For orientation: EC50 means the midpoint of the concentration-response curve. `CCCCC/C=C\C/C=C\C/C=C\C/C=C\CCCC(=O)NCc1ccc(O)c(OC)c1` [arvanil, N-(4-hydroxy-3-methoxybenzyl)-5Z,8Z,11Z,14Z-eicosatetraenamide]: the EC50 on TRPV1 is 0.2 nM. Also, the “times more potent than AM404 as TRPV1 activator” value on TRPV1 (vasorelaxation readout) was > 100 times and 172 times. Further, the “times more potent than HPODA as TRPV1 activator” value on TRPV1 (vasorelaxation readout) is over 300 times. Also, the “Brain Arvanil” value was 3.33 pmol/g in series [1] (20 min after HMBA 100 mg/kg i.p., mouse); 3.33 ± 0.33 pmol/g in series [1] (20 min after HMBA 100 mg/kg i.p., mouse, listed as Arvanil); 56 ± 10 pmol/g in series [1] (20 min after HMBA 300 mg/kg i.p., mouse). For the same compound, the “brain content in FAAH−/− mice compared to FAAH+/+ littermates” value in [1] (20 min after i.p. 4-aminophenol (30 and 100 mg/kg) or HMBA (300 mg/kg)) is “substantially reduced”. For the same compound, the concentration at 20 min in [1] (in vivo, HMBA 100 mg/kg, mouse, read-out: brain content of arvanil) was determined as 3.33 pM. In addition, the “times more potent than AM404” value with rat orthologue of TRPV1 is recorded as 933 times; with human TRPV1, “approximately 50 times”.
